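Method: 48-hour compound exposure of cells in 96-well plates, five concentrations, linear interpolation of endpoints. TGI is the concentration that stops growth completely.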
Key:
Test in all cases: NCI-60 cell line screen, 48 h
UACC-257 melanoma = tested on: UACC-257 melanoma
HCT-15 colon = tested on: HCT-15 colon
786-0 renal = tested on: 786-0 renal
LOX IMVI melanoma = tested on: LOX IMVI melanoma
M14 melanoma = tested on: M14 melanoma
CAKI-1 renal = tested on: CAKI-1 renal
MALME-3M melanoma = tested on: MALME-3M melanoma
OVCAR-4 ovarian = tested on: OVCAR-4 ovarian
COLO 205 colon = tested on: COLO 205 colon
OVCAR-5 ovarian = tested on: OVCAR-5 ovarian
DU-145 prostate = tested on: DU-145 prostate
HL-60(TB) leukemia = tested on: HL-60(TB) leukemia
MCF7 breast = tested on: MCF7 breast
U251 CNS = tested on: U251 CNS
OVCAR-3 ovarian = tested on: OVCAR-3 ovarian
TK-10 renal = tested on: TK-10 renal
T-47D breast = tested on: T-47D breast
MOLT-4 leukemia = tested on: MOLT-4 leukemia
HCC-2998 colon = tested on: HCC-2998 colon
SK-MEL-5 melanoma = tested on: SK-MEL-5 melanoma
HOP-92 NSCLC = tested on: HOP-92 NSCLC
OVCAR-8 ovarian = tested on: OVCAR-8 ovarian
SK-MEL-28 melanoma = tested on: SK-MEL-28 melanoma
CCRF-CEM leukemia = tested on: CCRF-CEM leukemia
SNB-75 CNS = tested on: SNB-75 CNS
SK-OV-3 ovarian = tested on: SK-OV-3 ovarian
RXF 393 renal = tested on: RXF 393 renal
PC-3 prostate = tested on: PC-3 prostate
EKVX NSCLC = tested on: EKVX NSCLC
SF-268 CNS = tested on: SF-268 CNS
SNB-19 CNS = tested on: SNB-19 CNS
NCI/ADR-RES ovarian = tested on: NCI/ADR-RES ovarian
SF-295 CNS = tested on: SF-295 CNS
K-562 leukemia = tested on: K-562 leukemia
NCI-H23 lung = tested on: NCI-H23 lung
IGROV1 ovarian = tested on: IGROV1 ovarian
ACHN renal = tested on: ACHN renal
HCT-116 colon = tested on: HCT-116 colon
RPMI-8226 leukemia = tested on: RPMI-8226 leukemia
SF-539 CNS = tested on: SF-539 CNS
SN12C renal = tested on: SN12C renal
UO-31 renal = tested on: UO-31 renal
MDA-N = tested on: MDA-N
HS 578T breast = tested on: HS 578T breast
A549 NSCLC = tested on: A549 NSCLC
NCI-H460 lung = tested on: NCI-H460 lung
MDA-MB-231 breast = tested on: MDA-MB-231 breast
SW-620 colon = tested on: SW-620 colon
A498 renal = tested on: A498 renal
UACC-62 melanoma = tested on: UACC-62 melanoma
HT29 colon = tested on: HT29 colon
KM12 colon = tested on: KM12 colon
HOP-62 NSCLC = tested on: HOP-62 NSCLC
MDA-MB-435 = tested on: MDA-MB-435
NCI-H226 lung = tested on: NCI-H226 lung
BT-549 breast = tested on: BT-549 breast
NCI-H522 lung = tested on: NCI-H522 lung
SK-MEL-2 melanoma = tested on: SK-MEL-2 melanoma

Measured: TGI

S=C(S)NCNC(=S)S.[Zn+2]
not listed: NCI-H226 lung | BT-549 breast | NCI-H522 lung | SK-MEL-2 melanoma
> 100 µM: all other assays above

CSc1nc(Nc2cccc(C(F)(F)F)c2)c2c(N)nn(C)c2n1
not listed: HL-60(TB) leukemia | MCF7 breast | HOP-92 NSCLC | EKVX NSCLC | SF-539 CNS
> 100 µM: all other assays above

Cn1c(=O)c2c(nc(Cc3ccccc3)n2CC(=O)O)n(C)c1=O
not listed: COLO 205 colon | HL-60(TB) leukemia | MCF7 breast | SK-OV-3 ovarian | K-562 leukemia | RPMI-8226 leukemia | SF-539 CNS
> 100 µM: all other assays above
